Experimental findings from patent publication US8263606B2 (Xenon Pharmaceuticals Inc., priority 2008, dated 2012) are described below.

The test system of data set [1] is sodium channel. Put plainly: Guanidine influx assay (14C-guanidine radiotracer flux, in vitro). The conditions noted are these: guanidine influx assay using a known cell line that expresses a sodium channel; activity level class. It is filed as cell-based, human or rat. The text has this:
This example describes an in vitro assay for testing and profiling test agents against human or rat sodium channels stably expressed in cells of either an endogenous or recombinant origin. The assay is also useful for determining the IC50 of a sodium channel blocking compound. The assay is based on the guanidine flux assay described by Reddy, N. L., et al., J. Med. Chem. (1998), 41(17):3298-302.
The guanidine influx assay is a radiotracer flux assay used to determine ion flux activity of sodium channels in a high-throughput microplate-based format. The assay uses ^14C-guanidine hydrochloride in combination with various known sodium channel modulators, to assay the potency of test agents. Potency is determined by an IC50 calculation. Selectivity is determined by comparing potency of the compound for the channel of interest to its potency against other sodium channels (also called ‘selectivity profiling’).
Each of the test agents is assayed against cells that express the channels of interest. Voltage gated sodium channels are either TTX sensitive or insensitive. This property is useful when evaluating the activities of a channel of interest when it resides in a mixed population with other sodium channels. The following Table 1 summarizes cell lines useful in screening for a certain channel activity in the presence or absence of TTX.
It is also possible to employ recombinant cells expressing these sodium channels. Cloning and propagation of recombinant cells are known to those skilled in the art (see, for example, Klugbauer, N, et al., EMBO J. (1995), 14(6):1084-90; and Lossin, C., et al., Neuron (2002), 34, pp. 877-884).
Cells expressing the channel of interest are grown according to the supplier or in the case of a recombinant cell in the presence of selective growth media such as G418 (Gibco/Invitrogen). The cells are disassociated from the culture dishes with an enzymatic solution (Ix) Trypsin/EDTA (Gibco/Invitrogen) and analyzed for density and viability using haemocytometer (Neubauer). Disassociated cells are washed and resuspended in their culture media then plated into Scintiplates (Beckman Coulter Inc.) (approximately 100,000 cells/well) and incubated at 37° C./5% CO2 for 20-24 hours. After an extensive wash with Low sodium HEPES-buffered saline solution (LNHBSS) (150 mM Choline Chloride, […] (Sigma), 1 mM Calcium Chloride, 5 mM Potassium Chloride, 1 mM Magnesium Chloride, 10 mM Glucose) agents diluted with LNHBSS are added to each well. (Varying concentrations of test agent may be used). The activation/radiolabel mixture contains aconitine (Sigma) to increase the percentage of time that the sodium channels are open, and ^14C-guanidine hydrochloride (ARC) to measure flux through the voltage-gated sodium channels.
After loading the cells with test agent and activation/radiolabel mixture, the Scintiplates are incubated at ambient temperature. Following the incubation, the Scintplates are extensively washed with LNHBSS supplemented with guanidine (Sigma). The Scintiplates are dried and then counted using a Wallac MicroBeta TriLux (Perkin-Elmer Life Sciences). The ability of the test agent to block sodium channel activity is determined by comparing the amount of ^14C-guanidine present inside the cells expressing the different sodium channels.
The IC50 value of a test agent for a specific sodium channel may be determined using the above general method. […] Typically the mid-point concentration of test agent is set at 1 μM, and sequential concentrations of half dilutions greater or smaller are applied (e.g. 0.5 μM; 5 μM and 0.25 μM; 10 μM and 0.125 μM; 20 μM etc.). The IC50 curve is calculated using the 4 Parameter Logistic Model or Sigmoidal Dose-Response Model formula (fit=(A+((B−A)/(1+((C/x)^D)))).
The fold selectivity, factor of selectivity or multiple of selectivity, is calculated by dividing the IC50 value of the test sodium channel by the reference sodium channel, for example, Nav1.5. […]

Data set [2] addresses CYP3A4 (Homo sapiens, UniProt P08684). As to the kind of experiment: Cytochrome P450 (CYP450) Inhibition Assay, CYP3A4 (Vivid fluorescence, BOMCC substrate). The following applies: human, P450 Baculosomes (recombinant CYP3A4), probe BOMCC (Vivid substrate).

Each structure is given as a SMILES string.

Sequence of CYP3A4 (P08684 whole entry): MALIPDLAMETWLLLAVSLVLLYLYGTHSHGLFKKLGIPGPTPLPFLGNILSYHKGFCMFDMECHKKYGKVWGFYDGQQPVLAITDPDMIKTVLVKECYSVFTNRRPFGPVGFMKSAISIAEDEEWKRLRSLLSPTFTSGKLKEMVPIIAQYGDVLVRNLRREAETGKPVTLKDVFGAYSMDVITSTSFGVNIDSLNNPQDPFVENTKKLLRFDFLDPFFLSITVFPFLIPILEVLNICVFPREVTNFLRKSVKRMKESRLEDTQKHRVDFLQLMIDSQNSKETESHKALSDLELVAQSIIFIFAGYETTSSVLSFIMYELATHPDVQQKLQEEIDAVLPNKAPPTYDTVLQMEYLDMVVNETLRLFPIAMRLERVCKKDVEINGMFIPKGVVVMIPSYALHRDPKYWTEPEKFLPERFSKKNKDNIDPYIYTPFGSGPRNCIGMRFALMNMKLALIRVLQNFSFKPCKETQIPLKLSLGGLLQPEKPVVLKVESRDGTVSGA

For orientation: IC50 means the midpoint of a concentration-inhibition curve. In general, inhibition refers to the share of the control response that was lost under treatment. Take `O=C1N(Cc2cc(Br)cs2)c2ccccc2C12COc1cc3c(cc12)OCO3` (stereo not shown) [Example 1.7, 1′-[(4-bromo-2-thienyl)methyl]spiro[furo[2,3-f][1,3]benzodioxole-7,3′-indol]-2′(1′H)-one]: the half-inhibitory concentration (IC50) in data set [1] fell in the range of 0.001 to 0.1 µM. Further, the inhibition at 10 µM in data set [2] was greater than 50%.

On to `COc1cncc(N2C(=O)C3(COc4cc5c(cc43)OCO5)c3ccccc32)c1` (stereo not shown) [Example 1.17, 1′-(5-methoxypyridin-3-yl)spiro[furo[2,3-f][1,3]benzodioxole-7,3′-indol]-2′(1′H)-one], for which the IC50 in data set [1] was 0.1 to 1 µM. Further, the inhibition at 10 µM in data set [2] was greater than 50%.

Consider `O=C1N(Cc2ccc(C(F)(F)F)o2)c2ccccc2C12COc1cc(Br)ccc12` (stereo not shown) [Example 2.22, 6-bromo-1′-((5-(trifluoromethyl)furan-2-yl)methyl)-2H-spiro[benzofuran-3,3′-indolin]-2′-one], for which the concentration for half-maximal inhibition (IC50) in data set [1] was in the range of 1 to 10 µM. In addition, the inhibition at 10 µM in data set [2] is greater than 50%.

As for `O=C1N(Cc2ccc(C(F)(F)F)o2)c2ccccc2C12COc1ccc(Br)cc12` (stereo not shown) [Example 2.23, 5-bromo-1′-((5-(trifluoromethyl)furan-2-yl)methyl)-2H-spiro[benzofuran-3,3′-indolin]-2′-one], the half-maximal inhibitory concentration (IC50) in data set [1] is 0.1 to 1 µM. In addition, the inhibition at 10 µM in data set [2] is greater than 50%.

For the compound `O=C1N(C[C@H]2CCCO2)c2ccccc2C12COc1cc3c(cc12)COCO3` (stereo partly drawn) [Example 2.31, 1′-[(2R)-tetrahydrofuran-2-ylmethyl]-4H-spiro[furo[3,2-g][1,3]benzodioxine-6,3′-indol]-2′(1′H)-one], the IC50 in data set [1] was 1 to 10 µM. Besides, the inhibition at 10 µM in data set [2] was greater than 50%.

Consider `COc1ccc(CN2C(=O)C3(COc4cc5c(cc43)OCCO5)c3c2ccc2ncsc32)cc1` (stereo not shown) [Example 2.66, 6′-(4-methoxybenzyl)-2,3-dihydrospiro[furo[2,3-g][1,4]benzodioxine-8,8′-[1,3]thiazolo[5,4-e]indol]-7′(6′H)-one], for which the IC50 in data set [1] is 0.1 to 1 µM. Besides, in data set [2], the inhibition at 10 µM is greater than 50%.

Consider `O=C1Nc2ccccc2C12COc1cc(Br)ccc12` (stereo not shown) [Example 3.2, 6-bromospiro[1-benzofuran-3,3′-indol]-2′(1′H)-one], for which the IC50 in data set [1] is 1 to 10 µM. Further, the inhibition at 10 µM in data set [2] was greater than 50%.

`O=C1Nc2ccccc2C12COc1ccc(F)cc12` (stereo not shown) [Example 3.8, 5-fluoro-spiro[1-benzofuran-3,3′-indol]-2′(1′H)-one]: the IC50 in data set [1] fell in the range of 1 to 10 µM. The inhibition at 10 µM in data set [2] was greater than 50%.

`O=C1Nc2ccccc2C12CCOc1cc3c(cc12)CCO3` (stereo not shown) [Example 3.24, 2,3,6,7-tetrahydrospiro[furo[3,2-g]chromene-5,3′-indol]-2′(1′H)-one]: the IC50 in data set [1] was in the range of 1 to 10 µM. Also, the inhibition at 10 µM in data set [2] is less than 50%.

For `O=C1Nc2cccc(Br)c2C12COc1cc3c(cc12)OCCO3` (stereo not shown) [Example 3.32, 4′-bromo-2,3-dihydrospiro[furo[2,3-g][1,4]benzodioxine-8,3′-indol]-2′(1′H)-one], the IC50 in data set [1] was in the range of 0.1 to 1 µM. Further, the inhibition at 10 µM in data set [2] was less than 50%.

In the case of `O=C1Nc2ccccc2C12COc1cc3c(cc12)S(=O)(=O)C=C3` (stereo not shown) [Example 3.40, spiro[indole-3,3′-thieno[2,3-f][1]benzofuran]-2(1′H)-one 5,5′-dioxide], in data set [1], the IC50 was 1 to 10 µM. The inhibition at 10 µM in data set [2] is less than 50%.

Take `COCCOc1ccc2c(c1)C1(CO2)C(=O)Nc2ccccc21` (stereo not shown) [Example 3.47, 5-(2-methoxyethoxy)spiro[1-benzofuran-3,3′-indol]-2′(1′H)-one]: the 50% inhibitory concentration (IC50) in data set [1] lay in the range of 1 to 10 µM. Further, the inhibition at 10 µM in data set [2] was less than 50%.

For `O=C1Nc2ccc3ncsc3c2C12COc1cc3c(cc12)OCCO3` (stereo not shown) [Example 3.49, 2,3-dihydrospiro[furo[2,3-g][1,4]benzodioxine-8,8′-[1,3]thiazolo[5,4-e]indol]-7′(6′H)-one], the IC50 in data set [1] lay within 1 to 10 µM. Moreover, the inhibition at 10 µM in data set [2] is greater than 50%.

Turning to `COc1cc2c(c(OC)c1)C1(COc3cc4c(cc31)OCCO4)C(=O)N2` (stereo not shown) [Example 3.50, 4′,6′-dimethoxy-2,3-dihydrospiro[furo[2,3-g][1,4]benzodioxine-8,3′-indol]-2′(1′H)-one], the 50% inhibitory concentration (IC50) in data set [1] lay within 1 to 10 µM. Further, in data set [2], the inhibition at 10 µM was less than 50%.
